Measured values from patent US11472844B2, “Peptidomimetics, method of synthesis and uses thereof” (priority 2017, dated 2022).
Entries after “also recorded” stand apart in the source; their conditions may differ. *: point of attachment. X1 = CC[N+]1=C(/C=C/C=C/C=C2N(CCCCCC(=O)NCCN3C(=O)CC(*)C3=O)c3ccc(S(=O)(=O)O)cc3C2(C)C)C(C)(C)c2cc(S(=O)(=O)[O-])ccc21

Columns and labels:
[1] = test system: cystic fibrosis (CF) patients sputum; test: CF patient sputum immunofluorescent staining; parameters: species or system human; conditions: together with anti-Muc2 and anti-Muc5ac antibodies, 1 μg/mL
Protocol: FIG. 4. CF patient sputum immunofluorescent staining with MUB40-Cy5 (SEQ ID NO: 3), anti-Muc2 and anti-Muc5ac antibodies (with secondary antibodies conjugated with FITC and Rhodamin respectively).
Muc2 was stained with an anti-Mucin2 antibody (green). Muc5ac was stained with an anti-Mucin5ac antibody (red). Tissue was additionally stained with MUB40-Cy5 (1 μg/mL, magenta). DNA was stained with Dapi (blue).

[2] = target: T1, human purified lactoferrin (Homo sapiens, UniProt P02788); test: Lactoferrin polymers immunofluorescence labelling; type: binding; conditions: PNGase treatment; listed as MUB40-Cy5
T1 construct: purchased Sigma-Aldrich L1294
Protocol: Lactoferrin polymerization. Human purified lactoferrin (ref: L1294, Sigma-Aldrich) was resuspended in deionized H2O (35 μg/mL). Lactoferrin was incubated in RPMI+10 mM Hepes supplemented with 10 mM FeCl3, at indicated concentrations (0.35 or 3.5 μg/mL) onto 24-well plates containing 12 mm coverslips overnight at 37° C., adapted from similar lactoferrin polymerization experiments performed in iron saturated phosphate buffer (Mantel et al. 1994).
Lactoferrin deglycolysation. About 10 μg of human purified lactoferrin (ref: L1294, Sigma-Aldrich) was treated by Peptide-N-Glycosidase F (PNGaseF, New England Biolabs, Ipswich Mass., USA) for N-deglycosylation. Protein was treated exactly as described in manufacturer protocol. Twelve unit of PNGase F were added for 4 h at 37° C. for the removal of N-glycosylation.
Lactoferrin polymers interaction with MUB40-Cy5. Lactoferrin polymers were centrifuged at 2000 rpm for 10 min and fixed in Paraformaldehyde (PFA) 4% for one hour. Lactoferrin polymers were immunolabeled in PBS+0.1% saponin (Sigma-Aldrich) with a mouse anti-lactoferrin primary monoclonal antibody (Hycult biotech, clone 265-1K1, 1:50 dilution) and an anti-mouse-FITC conjugated secondary antibody (1:1000), together with MUB40-Cy5 (SEQ ID NO: 3) (1 μg/mL). Slides were washed three times in PBS and three times in deionized H2O and mounted with prolong gold^tm mounting media.

[3] = test system: recruited neutrophils and secreted lactoferrin; test: Labelling of human inflamed tissue biopsies; conditions: malignant fibrous histiocytoma and streptococcal skin abscess biopsies, 1 μg/mL
Text: Human inflammatory tissues. Human biopsies from patients diagnosed for malignant fibrous histiocytoma and for a streptococcal skin abscess were collected and processed at the Kremlin Bicêtre Hospital, Anatomy and Pathological Histology Department. Tissue samples were fixed in formaldehyde and further embedded in paraffin. 10 μm sections were obtained using a microtome (Leica Biosystem). Tissues were labeled with a mouse anti-lactoferrin primary monoclonal antibody (Hycult biotech, clone 265-1K1, 1:50 dilution), MUB40-Cy5 (SEQ ID NO: 3) (1 μg/mL), and Dapi (1:1000 dilution) as described below.

T1 sequence (P02788 20-710): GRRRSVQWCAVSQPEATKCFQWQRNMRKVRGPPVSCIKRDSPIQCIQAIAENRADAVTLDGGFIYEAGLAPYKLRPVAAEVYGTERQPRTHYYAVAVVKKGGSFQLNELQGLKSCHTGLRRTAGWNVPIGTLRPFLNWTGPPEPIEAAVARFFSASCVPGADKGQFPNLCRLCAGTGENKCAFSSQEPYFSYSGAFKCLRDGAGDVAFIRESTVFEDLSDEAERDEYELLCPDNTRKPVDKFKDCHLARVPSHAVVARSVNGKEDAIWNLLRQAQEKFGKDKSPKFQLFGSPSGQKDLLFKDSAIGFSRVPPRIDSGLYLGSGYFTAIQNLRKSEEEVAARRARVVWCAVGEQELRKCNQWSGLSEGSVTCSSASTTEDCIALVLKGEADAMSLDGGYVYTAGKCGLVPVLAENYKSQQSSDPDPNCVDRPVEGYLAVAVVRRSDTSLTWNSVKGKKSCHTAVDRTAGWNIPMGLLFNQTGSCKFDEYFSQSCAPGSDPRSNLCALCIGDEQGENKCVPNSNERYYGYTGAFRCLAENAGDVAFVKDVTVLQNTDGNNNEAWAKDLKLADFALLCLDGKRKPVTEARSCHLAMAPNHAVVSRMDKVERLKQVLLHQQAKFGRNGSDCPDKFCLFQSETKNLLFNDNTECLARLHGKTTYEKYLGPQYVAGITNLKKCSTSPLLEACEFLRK

Substance: Ac-C(X1)TAEGIKKFEGDGYELFKDNFPAGEKFDNDDTNDQFYTVIF-NH2 [Cy5-MUB40#1]
- labelling of CF patients sputum [1]: labeled
- labelling of deglycosylated lactoferrin [2]: no longer labelled; also recorded: abolished
- labelling of recruited neutrophils and secreted lactoferrin [3]: labeled
